Data: ChEMBL document CHEMBL1201862, “PubChem BioAssay data set” (2004)
Activity calls are given as the source filed them.

Legend:
[1] = target: ADP-ribosylation factor GTPase-activating protein 1 (Rattus norvegicus, UniProt Q62848); assay: Fluorescence polarization-based biochemical high throughput dose response screening assay to identify inhibitors of ADP-ribosylation factor GTPase activating protein 1 (ARFGAP1).; type: functional
[2] = target: Arf-GAP with SH3 domain, ANK repeat and PH domain-containing protein 1 (Homo sapiens, UniProt Q9ULH1); type: functional;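 also: biochemical fluorescence polarization dose–response screen measuring inhibition of ASAP1; ASAP1 GAP domain stimulating GTP hydrolysis by truncated human ARF1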
Chain of Arf-GAP with SH3 domain, ANK repeat and PH domain-containing protein 1 (Q9ULH1 whole entry, the tested form may be a part): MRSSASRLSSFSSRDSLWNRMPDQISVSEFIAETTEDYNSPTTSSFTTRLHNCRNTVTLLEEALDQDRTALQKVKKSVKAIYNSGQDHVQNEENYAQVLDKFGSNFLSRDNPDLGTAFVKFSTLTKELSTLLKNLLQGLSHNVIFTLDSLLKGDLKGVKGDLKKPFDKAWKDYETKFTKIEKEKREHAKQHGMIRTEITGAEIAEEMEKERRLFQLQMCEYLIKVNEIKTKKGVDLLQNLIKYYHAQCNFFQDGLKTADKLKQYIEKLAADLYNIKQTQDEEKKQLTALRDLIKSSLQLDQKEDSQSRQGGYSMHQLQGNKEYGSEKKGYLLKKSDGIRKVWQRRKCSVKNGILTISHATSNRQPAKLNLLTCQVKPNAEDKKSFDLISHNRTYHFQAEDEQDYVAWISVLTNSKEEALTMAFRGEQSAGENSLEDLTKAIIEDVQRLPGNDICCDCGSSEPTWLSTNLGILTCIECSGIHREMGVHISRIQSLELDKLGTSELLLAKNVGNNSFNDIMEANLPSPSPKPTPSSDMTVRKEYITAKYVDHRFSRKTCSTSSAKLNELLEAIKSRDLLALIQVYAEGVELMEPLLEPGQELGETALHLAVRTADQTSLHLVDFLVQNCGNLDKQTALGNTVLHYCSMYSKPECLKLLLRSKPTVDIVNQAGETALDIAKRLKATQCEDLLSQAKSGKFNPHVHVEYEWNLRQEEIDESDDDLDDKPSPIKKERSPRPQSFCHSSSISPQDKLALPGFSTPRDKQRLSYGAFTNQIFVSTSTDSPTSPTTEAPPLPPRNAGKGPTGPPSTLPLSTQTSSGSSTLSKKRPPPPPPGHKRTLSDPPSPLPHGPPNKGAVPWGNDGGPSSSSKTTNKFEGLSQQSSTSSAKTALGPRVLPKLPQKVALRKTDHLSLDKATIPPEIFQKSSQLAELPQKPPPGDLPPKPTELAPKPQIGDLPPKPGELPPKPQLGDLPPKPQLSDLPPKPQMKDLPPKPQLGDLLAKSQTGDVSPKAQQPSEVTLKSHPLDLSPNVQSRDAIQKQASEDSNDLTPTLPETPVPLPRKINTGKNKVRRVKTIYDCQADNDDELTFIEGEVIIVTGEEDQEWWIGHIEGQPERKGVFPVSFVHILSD

[3] = target: T1, Low molecular weight phosphotyrosine protein phosphatase (Homo sapiens, UniProt P24666); type: functional; conditions: read-out: IC50_Mean
T1 sequence (P24666 whole entry): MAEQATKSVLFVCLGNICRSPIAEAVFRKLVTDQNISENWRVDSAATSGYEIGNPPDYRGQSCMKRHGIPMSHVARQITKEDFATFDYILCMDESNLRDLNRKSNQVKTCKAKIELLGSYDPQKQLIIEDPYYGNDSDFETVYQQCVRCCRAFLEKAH

[4] = target: T1, Low molecular weight phosphotyrosine protein phosphatase; type: functional; conditions: read-out: IC50_Mean; remark: listed apart in the source
[5] = target: T2, Zinc finger protein mex-5 (Caenorhabditis elegans, UniProt Q9XUB2); assay: potency of MEX-5 RNA-binding blockers – biochemical, C. elegans, fluorescence polarization, dose response (AID 1960)
T2 sequence (Q9XUB2 whole entry): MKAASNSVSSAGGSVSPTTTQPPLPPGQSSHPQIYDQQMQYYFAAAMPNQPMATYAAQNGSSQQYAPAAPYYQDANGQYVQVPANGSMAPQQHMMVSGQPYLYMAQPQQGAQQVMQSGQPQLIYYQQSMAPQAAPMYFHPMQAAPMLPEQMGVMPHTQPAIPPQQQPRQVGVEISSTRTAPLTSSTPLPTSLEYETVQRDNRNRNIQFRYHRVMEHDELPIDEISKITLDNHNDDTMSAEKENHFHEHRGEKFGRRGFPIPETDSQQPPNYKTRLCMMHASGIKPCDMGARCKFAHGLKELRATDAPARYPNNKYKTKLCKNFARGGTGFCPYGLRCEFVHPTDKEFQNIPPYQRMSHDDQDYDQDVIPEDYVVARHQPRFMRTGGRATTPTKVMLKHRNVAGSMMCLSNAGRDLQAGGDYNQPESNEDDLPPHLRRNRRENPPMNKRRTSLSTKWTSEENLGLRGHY

[6] = target: T3, RNA-binding protein pos-1 (Caenorhabditis elegans, UniProt G5EF15); assay: disruptors of C. elegans POS-1 RNA interaction – biochemical, fluorescence polarization, dose response (AID 1964);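 also: purified POS-1 fused to maltose binding protein made in E. coli; potency of compounds blocking POS-1 binding to fluorescent RNA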
T3 sequence (G5EF15 whole entry): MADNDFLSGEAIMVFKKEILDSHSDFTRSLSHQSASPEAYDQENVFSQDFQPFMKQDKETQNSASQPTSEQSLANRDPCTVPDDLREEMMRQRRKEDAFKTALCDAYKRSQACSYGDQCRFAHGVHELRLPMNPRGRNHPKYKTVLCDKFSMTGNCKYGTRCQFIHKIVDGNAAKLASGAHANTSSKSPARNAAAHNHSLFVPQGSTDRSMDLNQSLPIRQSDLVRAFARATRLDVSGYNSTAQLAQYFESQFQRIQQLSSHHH

[7] = loss of viability in HepG2 cells – cell-based, CellTiter-Glo, cherry-picked, cytotoxicity control for Shn3 inhibitor project, dose response (AID 624134); type: functional
[8] = target: T4, Replicative DNA helicase DnaB (Mycobacterium tuberculosis, UniProt P9WMR3); assay: DnaB intein splicing inhibitors, dose response, biochemical, cell-free fluorescence (AID 449749); type: functional
T4 sequence (P9WMR3 whole entry): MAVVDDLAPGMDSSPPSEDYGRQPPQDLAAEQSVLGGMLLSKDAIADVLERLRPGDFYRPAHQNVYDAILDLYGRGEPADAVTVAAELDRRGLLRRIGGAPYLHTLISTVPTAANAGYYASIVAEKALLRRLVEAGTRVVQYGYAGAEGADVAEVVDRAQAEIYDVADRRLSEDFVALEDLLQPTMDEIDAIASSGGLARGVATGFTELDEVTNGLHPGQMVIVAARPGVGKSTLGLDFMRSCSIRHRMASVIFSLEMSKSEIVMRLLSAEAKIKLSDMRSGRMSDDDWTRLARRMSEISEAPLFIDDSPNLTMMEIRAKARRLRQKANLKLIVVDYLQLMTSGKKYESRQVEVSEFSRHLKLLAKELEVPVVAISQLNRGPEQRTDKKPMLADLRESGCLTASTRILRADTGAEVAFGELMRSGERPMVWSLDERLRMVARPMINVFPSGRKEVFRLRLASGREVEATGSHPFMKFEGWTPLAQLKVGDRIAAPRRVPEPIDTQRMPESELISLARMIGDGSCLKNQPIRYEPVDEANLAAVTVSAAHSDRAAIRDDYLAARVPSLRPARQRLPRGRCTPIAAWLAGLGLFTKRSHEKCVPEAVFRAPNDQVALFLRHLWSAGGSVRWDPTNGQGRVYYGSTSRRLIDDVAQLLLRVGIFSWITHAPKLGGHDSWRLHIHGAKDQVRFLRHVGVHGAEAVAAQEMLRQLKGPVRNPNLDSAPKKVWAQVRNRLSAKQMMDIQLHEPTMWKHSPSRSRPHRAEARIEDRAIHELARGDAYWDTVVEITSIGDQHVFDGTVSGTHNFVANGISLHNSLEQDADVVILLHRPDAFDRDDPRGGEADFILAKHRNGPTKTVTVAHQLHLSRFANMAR

[9] = cAMP pathway inhibition in counterscreen cell line – TR-FRET cAMP detection, counter-screen for MC4R biased antagonist project, dose response (AID 602305); type: functional, cell-based;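 also: U2OS cells stimulated with forskolin near its EC80 as the cAMP inducer; potency is for inhibition of forskolin-stimulated cAMP signaling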
Protein RecA = target: T5, Protein RecA (Mycobacterium tuberculosis, UniProt P9WHJ3); assay: Fluorescence Cell-Free Homogeneous Dose Retest to Identify Inhibitors of RecA-Intein Splicing Activity. [Related pubchem assays (depositor defined):AID2097, AID2223, AID489010, AID492950]; type: functional
T5 sequence (P9WHJ3 whole entry): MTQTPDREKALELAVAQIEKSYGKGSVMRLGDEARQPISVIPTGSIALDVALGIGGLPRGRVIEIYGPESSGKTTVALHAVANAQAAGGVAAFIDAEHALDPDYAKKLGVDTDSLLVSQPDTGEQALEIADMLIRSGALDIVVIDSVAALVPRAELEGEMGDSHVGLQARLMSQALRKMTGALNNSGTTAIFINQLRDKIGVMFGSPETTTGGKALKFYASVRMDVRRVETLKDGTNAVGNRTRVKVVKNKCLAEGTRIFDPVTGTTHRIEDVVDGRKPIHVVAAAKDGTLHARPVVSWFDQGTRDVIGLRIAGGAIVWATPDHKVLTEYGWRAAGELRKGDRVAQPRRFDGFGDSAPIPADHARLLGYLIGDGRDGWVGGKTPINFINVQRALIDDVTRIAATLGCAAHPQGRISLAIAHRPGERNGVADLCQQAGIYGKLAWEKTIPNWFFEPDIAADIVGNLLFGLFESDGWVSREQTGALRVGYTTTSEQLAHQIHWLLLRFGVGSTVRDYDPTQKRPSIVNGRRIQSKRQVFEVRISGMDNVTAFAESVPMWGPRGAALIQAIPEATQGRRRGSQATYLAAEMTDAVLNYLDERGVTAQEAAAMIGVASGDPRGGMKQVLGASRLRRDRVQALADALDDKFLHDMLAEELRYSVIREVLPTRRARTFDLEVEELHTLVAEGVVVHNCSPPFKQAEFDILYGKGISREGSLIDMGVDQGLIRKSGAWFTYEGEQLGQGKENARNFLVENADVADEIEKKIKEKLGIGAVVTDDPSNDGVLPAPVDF

[10] = Fluorescence-based cell-based high throughput dose response assay for inhibitors of the interaction of nucleotide-binding oligomerization domain containing 2 (NOD2) and the receptor-interacting serine-threonine kinase 2 (RIPK2).; type: functional; conditions: Homo sapiens
Beta Lactamase = Beta Lactamase (Pseudomonas aeruginosa, UniProt Q932Y6); assay: BLA reporter interference, concentration series – BLA reporter cells, FRET fluorescence, artefact control for NOD2-RIPK2 interaction inhibitor project, dose response (AID 651552); type: functional, cell-based
Chain of Beta Lactamase (Q932Y6 whole entry): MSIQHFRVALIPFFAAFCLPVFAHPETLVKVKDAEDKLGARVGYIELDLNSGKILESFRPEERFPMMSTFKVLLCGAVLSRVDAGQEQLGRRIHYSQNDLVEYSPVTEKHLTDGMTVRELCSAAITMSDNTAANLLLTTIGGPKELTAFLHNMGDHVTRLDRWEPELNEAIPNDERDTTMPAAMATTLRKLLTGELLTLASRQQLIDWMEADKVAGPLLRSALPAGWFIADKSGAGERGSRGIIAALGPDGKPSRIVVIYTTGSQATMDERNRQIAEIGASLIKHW

[11] = non-specific 3'UTR reporter inhibition in Clone20-Shn3RL – cell-based, Renilla luciferase, cherry-picked, counter-screen for Shn3 inhibitor project, dose response (AID 624133); type: functional
[12] = reduction of Shn3 3'UTR-driven luciferase in osteoblasts – cell-based, Clone20 osteoblasts, firefly luciferase, cherry-picked, dose response (AID 624132); type: functional;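 also: firefly luciferase luminescence from reporter carrying the Shn3 3'UTR in osteoblasts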
Melanocortin receptor 4 = Melanocortin receptor 4 (Homo sapiens, UniProt P32245); assay: inhibitors of MC4R cAMP signaling – cell-based, TR-FRET, biased antagonists, dose response (AID 602298); type: functional;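 also: antagonist potency against agonist-stimulated cAMP production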
Chain of Melanocortin receptor 4 (P32245 whole entry): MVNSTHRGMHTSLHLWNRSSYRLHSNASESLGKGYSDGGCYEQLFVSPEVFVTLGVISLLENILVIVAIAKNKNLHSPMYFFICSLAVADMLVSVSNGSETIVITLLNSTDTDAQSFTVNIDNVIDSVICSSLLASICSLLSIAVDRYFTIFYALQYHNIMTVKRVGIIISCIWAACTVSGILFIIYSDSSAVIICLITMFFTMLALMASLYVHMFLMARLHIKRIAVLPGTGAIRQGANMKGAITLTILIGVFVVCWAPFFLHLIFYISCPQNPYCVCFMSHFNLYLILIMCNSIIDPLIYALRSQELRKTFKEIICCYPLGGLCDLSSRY

[13] = target: T6, DNA repair and recombination protein RAD54-like (Homo sapiens, UniProt Q92698); assay: RAD54 Holliday junction migration blockers – biochemical, fluorescence, cherry-picked samples, dose series, confirmation (AID 651657); type: functional
T6 sequence (Q92698 whole entry): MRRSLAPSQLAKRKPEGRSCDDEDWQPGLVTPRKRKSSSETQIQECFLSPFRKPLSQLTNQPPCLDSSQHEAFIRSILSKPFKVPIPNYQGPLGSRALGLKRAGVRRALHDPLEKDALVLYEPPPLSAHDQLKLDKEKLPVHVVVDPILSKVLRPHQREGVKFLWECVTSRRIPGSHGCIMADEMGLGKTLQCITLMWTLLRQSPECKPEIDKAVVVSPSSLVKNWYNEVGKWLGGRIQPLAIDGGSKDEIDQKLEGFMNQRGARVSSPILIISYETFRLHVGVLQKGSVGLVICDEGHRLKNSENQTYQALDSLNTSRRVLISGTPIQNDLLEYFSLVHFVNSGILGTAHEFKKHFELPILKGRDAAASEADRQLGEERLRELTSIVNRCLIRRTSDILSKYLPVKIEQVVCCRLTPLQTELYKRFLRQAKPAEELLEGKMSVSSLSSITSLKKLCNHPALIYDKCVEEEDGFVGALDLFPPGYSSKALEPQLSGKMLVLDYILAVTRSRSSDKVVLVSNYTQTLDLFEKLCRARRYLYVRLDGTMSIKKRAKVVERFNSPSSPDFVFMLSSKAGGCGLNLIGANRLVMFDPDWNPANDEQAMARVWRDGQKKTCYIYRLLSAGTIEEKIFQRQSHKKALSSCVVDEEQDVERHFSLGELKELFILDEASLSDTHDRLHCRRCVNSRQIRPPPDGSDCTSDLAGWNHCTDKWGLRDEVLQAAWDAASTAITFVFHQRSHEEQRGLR

[14] = target: SWI/SNF-related matrix-associated actin-dependent regulator of chromatin subfamily A member 2 (Homo sapiens, UniProt P51531); assay: Luminescence-based cell-based high throughput dose response assay to identify activators of the function of SWI/SNF related, matrix associated, actin dependent regulator of chromatin, subfamily a, member 2 (SMARCA2, BRM).; type: functional
Chain of SWI/SNF-related matrix-associated actin-dependent regulator of chromatin subfamily A member 2 (P51531 whole entry): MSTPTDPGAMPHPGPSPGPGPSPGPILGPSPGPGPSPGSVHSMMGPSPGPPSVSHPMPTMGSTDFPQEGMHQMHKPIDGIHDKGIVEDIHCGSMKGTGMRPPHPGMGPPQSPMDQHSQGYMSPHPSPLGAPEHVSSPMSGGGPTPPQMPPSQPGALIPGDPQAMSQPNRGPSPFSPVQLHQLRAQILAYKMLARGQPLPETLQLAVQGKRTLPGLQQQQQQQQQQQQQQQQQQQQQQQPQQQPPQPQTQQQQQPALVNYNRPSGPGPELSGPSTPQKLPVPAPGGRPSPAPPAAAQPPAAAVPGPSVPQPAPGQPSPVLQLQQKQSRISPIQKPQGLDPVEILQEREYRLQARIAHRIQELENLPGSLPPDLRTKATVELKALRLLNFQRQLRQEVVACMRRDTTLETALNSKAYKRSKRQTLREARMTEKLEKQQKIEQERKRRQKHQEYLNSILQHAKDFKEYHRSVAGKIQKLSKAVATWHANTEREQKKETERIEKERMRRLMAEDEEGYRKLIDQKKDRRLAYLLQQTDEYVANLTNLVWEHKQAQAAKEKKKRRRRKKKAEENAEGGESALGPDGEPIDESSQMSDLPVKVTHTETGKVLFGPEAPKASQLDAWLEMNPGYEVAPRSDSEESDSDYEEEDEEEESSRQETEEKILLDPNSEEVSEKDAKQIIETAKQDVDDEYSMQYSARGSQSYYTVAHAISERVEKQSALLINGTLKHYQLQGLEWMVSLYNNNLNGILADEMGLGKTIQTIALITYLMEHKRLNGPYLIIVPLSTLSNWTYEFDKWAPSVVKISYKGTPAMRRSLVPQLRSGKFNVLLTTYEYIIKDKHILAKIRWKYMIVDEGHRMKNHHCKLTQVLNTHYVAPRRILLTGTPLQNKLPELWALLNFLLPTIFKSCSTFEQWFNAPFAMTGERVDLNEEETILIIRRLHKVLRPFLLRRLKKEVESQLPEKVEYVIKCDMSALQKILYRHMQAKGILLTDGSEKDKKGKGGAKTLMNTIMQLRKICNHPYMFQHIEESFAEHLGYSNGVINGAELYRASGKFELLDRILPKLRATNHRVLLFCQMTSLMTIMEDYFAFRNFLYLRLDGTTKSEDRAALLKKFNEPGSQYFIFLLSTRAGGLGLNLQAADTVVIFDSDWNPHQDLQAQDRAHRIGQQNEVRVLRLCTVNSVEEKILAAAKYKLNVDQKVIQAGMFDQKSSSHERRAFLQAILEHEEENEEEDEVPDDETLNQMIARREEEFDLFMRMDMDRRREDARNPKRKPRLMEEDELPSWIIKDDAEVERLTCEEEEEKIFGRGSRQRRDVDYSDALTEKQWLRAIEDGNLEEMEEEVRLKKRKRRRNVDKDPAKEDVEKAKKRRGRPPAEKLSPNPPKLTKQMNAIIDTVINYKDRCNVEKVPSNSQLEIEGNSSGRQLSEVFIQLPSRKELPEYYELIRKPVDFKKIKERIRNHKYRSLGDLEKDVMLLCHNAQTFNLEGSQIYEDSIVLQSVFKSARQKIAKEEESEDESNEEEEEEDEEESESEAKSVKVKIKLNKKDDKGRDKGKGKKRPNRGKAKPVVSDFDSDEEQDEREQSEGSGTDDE

[15] = cytotoxicity toward MDA-MB-231 breast cancer cells – cell-based, CellTiter-Glo luminescence, cherry-pick, cytotoxicity control for RAD54 inhibitor project, dose response (AID 651692); type: functional
[16] = target: T7, DNA repair protein RAD52 homolog (Homo sapiens, UniProt P43351); type: functional, biochemical
T7 sequence (P43351 whole entry): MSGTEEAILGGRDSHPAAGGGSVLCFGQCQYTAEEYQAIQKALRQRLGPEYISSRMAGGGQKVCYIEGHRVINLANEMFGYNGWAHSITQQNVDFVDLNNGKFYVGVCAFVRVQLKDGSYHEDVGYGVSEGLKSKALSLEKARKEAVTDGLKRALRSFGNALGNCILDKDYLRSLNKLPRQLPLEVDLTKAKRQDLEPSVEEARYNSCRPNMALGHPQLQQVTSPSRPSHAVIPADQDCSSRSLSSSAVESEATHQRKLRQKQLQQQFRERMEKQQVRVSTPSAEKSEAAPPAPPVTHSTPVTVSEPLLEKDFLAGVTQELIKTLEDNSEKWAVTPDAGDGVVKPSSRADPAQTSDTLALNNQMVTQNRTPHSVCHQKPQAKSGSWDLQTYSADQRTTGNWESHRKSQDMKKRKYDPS

[17] = Counterscreen for activators of the function of SWI/SNF related, matrix associated, actin dependent regulator of chromatin, subfamily a, member 2 (SMARCA2, BRM): Luminescence-based cell-based high throughput dose response assay to identify non-selective compounds using the VP16 reporter assay.; type: functional
cells = type: functional
[18] = THP-1 cell cytotoxicity, dose response, cytotoxicity control for non-replicating M. tuberculosis project (AID 489025); type: functional
[19] = target: T8, Sentrin-specific protease 8 (Homo sapiens, UniProt Q96LD8); type: functional
T8 sequence (Q96LD8 whole entry): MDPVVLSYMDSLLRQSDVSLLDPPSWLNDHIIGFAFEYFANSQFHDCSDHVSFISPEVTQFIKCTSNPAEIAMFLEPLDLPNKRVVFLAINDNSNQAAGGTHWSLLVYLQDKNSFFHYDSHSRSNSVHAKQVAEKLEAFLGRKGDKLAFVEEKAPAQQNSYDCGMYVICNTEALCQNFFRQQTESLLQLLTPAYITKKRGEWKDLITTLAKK

[20] = Trypanosoma cruzi growth suppression in host cells – NIH3T3 host cells, beta-gal luminescence, confirmation (AID 2044); type: functional, cell-based;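 also: intracellular parasites grown in NIH/3T3 mouse fibroblasts as host cells; luminescent beta-galactosidase reporter signal from transgenic T. cruzi replicating inside host cells; inhibitors lower the luminescence signal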
[21] = HepG2 cell cytotoxicity, dose response, cytotoxicity control for non-replicating M. tuberculosis project (AID 489018); type: functional; conditions: Mycobacterium tuberculosis
[22] = Vero E6 cell cytotoxicity, dose response, cytotoxicity control for non-replicating M. tuberculosis project, secondary assay (AID 492998); type: functional, VeroE6; conditions: Vero C1008
[23] = NIH3T3 cell viability loss – ATP luminescence, mouse fibroblasts, counter-screen, dose response (AID 2010); type: functional, cell-based;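 also: cells exposed to compound for about 90 hours before reading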
[24] = target: T8, Sentrin-specific protease 8; type: functional; remark: listed apart in the source

Chain of ADP-ribosylation factor GTPase-activating protein 1 (Q62848 whole entry, the tested form may be a part): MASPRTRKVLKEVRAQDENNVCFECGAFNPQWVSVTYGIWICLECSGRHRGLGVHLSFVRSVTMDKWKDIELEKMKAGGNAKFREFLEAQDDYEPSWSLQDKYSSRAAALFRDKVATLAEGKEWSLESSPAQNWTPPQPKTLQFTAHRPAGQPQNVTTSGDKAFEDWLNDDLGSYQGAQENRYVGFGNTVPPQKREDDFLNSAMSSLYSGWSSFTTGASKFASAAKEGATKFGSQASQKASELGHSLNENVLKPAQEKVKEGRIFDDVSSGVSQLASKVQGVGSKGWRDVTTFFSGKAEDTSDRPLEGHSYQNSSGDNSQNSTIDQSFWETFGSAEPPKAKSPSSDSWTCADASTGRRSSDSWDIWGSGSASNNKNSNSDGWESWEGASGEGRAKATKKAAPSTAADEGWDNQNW

SMILES: COc1ccc([N+](=O)[O-])cc1NC(=O)c1ccc(Br)s1
- IC50 [1]: 35.6 µM (inactive)
- IC50 [2]: 20.8 µM (inactive)

SMILES: N#CC1=C(N)OC2=C(C(=O)CC(c3ccco3)C2)C1c1ccc(OCc2c(F)cccc2Cl)cc1 (stereo not drawn)
- IC50 [3]: > 80 µM (inactive)
- IC50 [4]: 35.1 µM (inactive)
- EC50 [5]: > 300 µM (not active)
- EC50 [6]: > 300 µM (not active)

SMILES: Cc1cccc(CS(=O)(=O)c2ncc(Cl)c(C(=O)NCc3ccc4c(c3)OCO4)n2)c1
- AC50 [7]: 41.3 µM (active)
- AC50 [8]: 3.39 µM (active)
- IC50 [9]: > 64.6 µM (inactive)
- EC50 (Protein RecA): 3.52 µM (active)
- IC50 [10]: 3.95 µM (active)
- IC50 (Beta Lactamase): 21.1 µM (inactive)
- AC50 [11]: 11.3 µM (active)
- AC50 [12]: 0.938 µM (active)
- IC50 (Melanocortin receptor 4): > 64.6 µM (inactive)

SMILES: COc1cc(Nc2c3ccccc3nc3ccccc23)cc(OC)c1OC
- AC50 [13]: 14.8 µM (active)
- EC50 [14]: > 91.2 µM (inactive)
- AC50 [15]: 29.2 µM (active)
- AC50 [16]: 5.17 µM (active)
- EC50 [17]: > 91.2 µM (inactive)

SMILES: Cc1ccccc1NCC(=O)N/N=C\c1ccc([N+](=O)[O-])s1
- IC50 (cells): 5.71 µM (active)
- CC50 [18]: 18.8 µM (active)
- IC50 [19]: 46.7 µM (active)
- EC50 [20]: 0.506 µM (active)
- CC50 [21]: 16 µM (active)
- CC50 [22]: 13.8 µM (active)
- EC50 [23]: > 60 µM (not active)
- IC50 [24]: 90.4 µM (inactive)
